Measured values taken from patent US20230339835A1, “2,3,5-TRIMETHYL-6-NONYLCYCLOHEXA-2,5-DIENE-1,4-DIONE FOR SUPPRESSING AND TREATING ALPHA-SYNUCLEINOPATHIES, TAUOPATHIES, AND OTHER DISORDERS” (PTC THERAPEUTICS, INC., priority 2018, published 2023).

Experiments:
[1] = target: T1, pre-formed fibrils (PFFs) of human wild-type Tau K18 fragment (Homo sapiens, UniProt P10636); assay: Cell-free Tau K18 WT pre-formed fibril disaggregation assay (Thioflavin T); assay type: biochemical; details: 10 μM Tau PFFs, 30 μM compound, 94 hr, vs vehicle (Dunnett's test)
T1 construct: human recombinant Tau K18 WT fragment were generated by incubating the Tau K18 monomer (Bio-Techne®); purchased Bio-Techne
Experimental: Summary: Compounds 2,3,5-trimethyl-6-nonylcyclohexa-2,5-diene-1,4-dione (C9), 2,3,5-trimethyl-6-octylcyclohexa-2,5-diene-1,4-dione (C8), and 2,3,5-trimethyl-6-heptylcyclohexa-2,5-diene-1,4-dione (C7) were tested for their ability to disaggregate pre-formed fibrils (PFFs) of human wild-type Tau K18 fragment, as measured by the decrease in fluorescence intensity of the aggregate-binding fluorophore, Thioflavin T, over time.
Experimental Methods: Pre-formed fibrils (PFFs) of the human recombinant Tau K18 WT fragment were generated by incubating the Tau K18 monomer (Bio-Techne®) with sodium heparin in a 1:1 ratio in presence of excess (50×) tris(2-carboxyethyl)phosphine (TCEP) as the reducing agent in Dulbecco's phosphate-buffered saline (DPBS) buffer (pH 7.4). The mixture was incubated for 4 days at 37° C. without agitation to yield PFFs in 100 μM final concentration.
Cell-free Tau disaggregation assays were set up with 10 μM of Tau PFFs in the presence of 30 μM of compound (from 10 mM stocks in DMSO) or in 0.3% (v/v) DMSO as vehicle. All solutions were prepared in DPBS buffer (pH 7.4) with 0.03% (v/v) NaN3 and 5 μM Thioflavin T (ThT), prepared as a master mix before addition of the protein or compounds. A protein master mix was first prepared the day before the assay to pre-equilibrate the Tau PFFs at 10 μM at ambient temperature and atmosphere. The next day, the pre-mixed protein solution was separated into 4 tubes (1 per condition). […]
Tau PFFs solution+/−compound and background samples were then loaded into wells of an optically transparent 96-well plate with black walls, which was sealed with a LightCycler® 480 seal (Roche Life Science), incubated at 37° C. for 15 minutes to equilibrate and the data collection was initiated. A Tecan M1000 spectrometer was used to collect data points on ThT fluorescence (ex/em 450/490 nm) every 30 minutes without agitation.
Data Analysis and Results: The maximum fluorescence intensity unit (FIU) value of the vehicle-treated Tau samples was set to 100%, to which all other FIU values were normalized relatively. […]

[2] = tested on: N27 rat dopaminergic cells overexpressing a truncated human αSynuclein-GFP fusion protein; assay: Inhibition of RSL3-induced αSynuclein aggregation in N27 cells; assay type: cell-based; details: 60 nM RSL3, 70 nM compound, 24 hr; for inhibition of RSL3-induced αSynuclein aggregation: vs RSL3 only (Dunnett's test)
Experimental: N27 rat dopaminergic cells (purchased from EMD Millipore, SCC048) were transformed to stably overexpress truncated α-Synuclein fused with green fluorescent protein (GFP) with a plasmid construct obtained from Origene (RG221446). Cells were maintained in selection media which consisted of RPMI 1640 media supplemented with 10% (v/v) fetal bovine serum (Millipore, ES-009-B), 1% (v/v) Pencillin-Streptomycin (Gibco, 15140-122), 1% (v/v) L-Glutamine (Gibco, 25030-081) and 500 μg/mL of G418 (Gibco, 10131-027).
N27 rat dopaminergic cells overexpressing a truncated (112 amino acid) human αSynuclein-GFP fusion protein, as described above, were maintained in normal culture conditions as described above. The day before the experiment, cells were plated in 96 well optical bottom, black walled plates at 3,000 cells/well, and maintained at 37° C. for 24 hr. The experiment was initiated by co-treating cells with (1S,3R)-methyl 2-(2-chloroacetyl)-1-(4-(methoxycarbonyl)phenyl)-2,3,4,9-tetrahydro-1H-pyrido[3,4-b]indole-3-carboxylate (1S,3R-RSL3, described by Yang et al., Cell 156:317-331 (2014)) (60 nM) and 70 nM compounds (2,3,5-trimethyl-6-nonylcyclohexa-2,5-diene-1,4-dione (C9), 2,3,5-trimethyl-6-octylcyclohexa-2,5-diene-1,4-dione (C8), or 2,3,5-trimethyl-6-heptylcyclohexa-2,5-diene-1,4-dione (C7)) using a D300e compound printer (Tecan), and placed back in the incubator at 37° C. for 24 hr. Cells were fixed with 4% paraformaldehyde for 15 minutes at room temperature, washed 3 times with Dulbecco's phosphate-buffered saline (DPBS) buffer, and then incubated at room temperature for 48 hr with 1% Triton-X 100 solution (in DPBS) to enable selective labeling of aggregated αSynuclein. Cells were then washed and standard immunocytochemistry (ICC) methods were employed to label total αSynuclein (mouse anti-αSynuclein, 1:250, BD Biosciences). Cells were incubated with primary antibody overnight at 4° C. and then washed with DPBS 3 times the following day. Cells were then incubated at room temperature with a fluorescently conjugated secondary antibody (goat anti-mouse Alexa 647, Invitrogen) for 2 hr at room temperature. 10 nM Hoechst was also added to label nuclei, and cells were imaged on a high-content imaging platform (ThermoFisher, HSC Cellomics Arrayscan) to quantify total aggregated αSynuclein (see FIG. 3A).
Statistical analysis of samples was performed via ordinary one-way ANOVA analysis with Dunnett's multiple comparisons test, comparing RSL3 only-treated vs. RSL3 plus compound-treated cells.

T1 sequence (P10636 561-685 limits assumed): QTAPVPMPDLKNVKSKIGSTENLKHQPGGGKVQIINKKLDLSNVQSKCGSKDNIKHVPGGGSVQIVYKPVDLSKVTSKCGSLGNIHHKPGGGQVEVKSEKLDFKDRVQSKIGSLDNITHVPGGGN

| SMILES | reduction in Tau fibril content [1] | level of aggregation inhibition over C8 [2] | inhibition of RSL3-induced αSynuclein aggregation [2] |
| --- | --- | --- | --- |
| CCCCCCCCCC1=C(C)C(=O)C(C)=C(C)C1=O [Compound C9, 2,3,5-trimethyl-6-nonylcyclohexa-2,5-diene-1,4-dione] | significant reduction | approximately 5.45 fold | significant inhibition |
| CCCCCCCCC1=C(C)C(=O)C(C)=C(C)C1=O [Compound C8, 2,3,5-trimethyl-6-octylcyclohexa-2,5-diene-1,4-dione, reference compound] | did not have a significant reduction | – | significant inhibition |
